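Grown in 96-well plates, cells were treated for 48 hours with each compound at five concentrations. Insufficient inhibition: endpoint recorded as highest concentration tested. Abbreviation: GI50, concentration required for 50% inhibition of growth.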 Active and inactive are the calls of the source. Cut-off read from the data, not from the text of the source: active = GI50 up to about 1.1 µM and inactive = higher.
Legend:
Experiment in all cases: growth of human tumour cells (NCI), 48 h
[1] = test system: OVCAR-5
[2] = test system: BT-549
[3] = test system: CCRF-CEM
[4] = test system: CAKI-1
[5] = test system: K562
[6] = test system: HCC 2998
[7] = test system: SN12C
[8] = test system: Malme-3M
[9] = test system: RPMI-8226
[10] = test system: SNB-19
[11] = test system: RXF 393
[12] = test system: HOP-62
[13] = test system: M14
[14] = test system: MOLT-4
[15] = test system: HCT-116
[16] = test system: SF-268
[17] = test system: HT-29
[18] = test system: UACC-62
[19] = test system: SK-MEL-2

SMILES | GI50 [1] | GI50 [2] | GI50 [3] | GI50 [4] | GI50 [5] | GI50 [6] | GI50 [7] | GI50 [8] | GI50 [9] | GI50 [10] | GI50 [11] | GI50 [12] | GI50 [13] | GI50 [14] | GI50 [15] | GI50 [16] | GI50 [17] | GI50 [18] | GI50 [19]
CSc1ccc(NC(=O)C2CCCCC2C(=O)O)cc1 (stereo unspecified) | > 100 µM (inactive) | > 100 µM (inactive) | > 100 µM (inactive) | > 100 µM (inactive) | > 100 µM (inactive) | > 100 µM (inactive) | > 100 µM (inactive) | > 100 µM (inactive) | > 100 µM (inactive) | > 100 µM (inactive) | > 100 µM (inactive) | > 100 µM (inactive) | > 100 µM (inactive) | 38.6 µM (inactive) | > 100 µM (inactive) | > 100 µM (inactive) | > 100 µM (inactive) | > 100 µM (inactive) | > 100 µM (inactive)
COc1cccc(C(=O)O[C@H]2[C@@H]3[C@]4(OC(C)=O)CO[C@@H]4C[C@H](O)[C@@]3(C)C(=O)[C@H](OC(C)=O)C3=C(C)[C@@H](OC(=O)[C@H](O)[C@@H](NC(=O)OC(C)(C)C)c4ccco4)C[C@]2(O)C3(C)C)c1 | 0.147 µM (active) | 0.0556 µM (active) | < 0.00375 µM (active) | < 0.00375 µM (active) | < 0.00375 µM (active) | < 0.00375 µM (active) | 0.064 µM (active) | 1.47 µM (inactive) | < 0.00375 µM (active) | 0.133 µM (active) | 0.00726 µM (active) | < 0.00375 µM (active) | < 0.00375 µM (active) | < 0.00375 µM (active) | < 0.00375 µM (active) | < 0.00375 µM (active) | < 0.00375 µM (active) | 0.0442 µM (active) | < 0.00375 µM (active)
O=[N+]([O-])C(=C/C1CCCCC1)/C(=C\C1CCCCC1)[N+](=O)[O-] | 11.7 µM (inactive) | 5.42 µM (inactive) | 2.62 µM (inactive) | 3.85 µM (inactive) | 4.49 µM (inactive) | 20.2 µM (inactive) | 3.24 µM (inactive) | 2.2 µM (inactive) | 0.316 µM (active) | 18.4 µM (inactive) | 1.49 µM (inactive) | 3.71 µM (inactive) | 4.05 µM (inactive) | 1.56 µM (inactive) | 6.43 µM (inactive) | 3.27 µM (inactive) | 5.48 µM (inactive) | 5.7 µM (inactive) | 16.3 µM (inactive)
COC(=O)C1=C(O)C(C(=O)OC)[C@]2(O)[C@H](C(=O)OC)[C@H]1C[C@@H](c1ccc(Cl)cc1)[C@H]2C(=O)OC (stereo partly specified) | 14.5 µM (inactive) | 6.12 µM (inactive) | 2.3 µM (inactive) | 7.73 µM (inactive) | 4.27 µM (inactive) | 6.79 µM (inactive) | 5.16 µM (inactive) | 6.56 µM (inactive) | 4.06 µM (inactive) | 5.5 µM (inactive) | 4.62 µM (inactive) | 7.67 µM (inactive) | 4.72 µM (inactive) | 3.64 µM (inactive) | 5.28 µM (inactive) | 6.79 µM (inactive) | 12 µM (inactive) | 7.69 µM (inactive) | 1.79 µM (inactive)
O=c1c2ncn(CCCl)c2n(-c2ccccc2)c(=S)n1-c1ccccc1 | > 100 µM (inactive) | > 100 µM (inactive) | > 100 µM (inactive) | > 100 µM (inactive) | 86.9 µM (inactive) | > 100 µM (inactive) | > 100 µM (inactive) | > 100 µM (inactive) | > 100 µM (inactive) | > 100 µM (inactive) | > 100 µM (inactive) | > 100 µM (inactive) | > 100 µM (inactive) | > 100 µM (inactive) | > 100 µM (inactive) | > 100 µM (inactive) | > 100 µM (inactive) | > 100 µM (inactive) | > 100 µM (inactive)
O=c1[nH]/c(=C/c2ccc(OCc3ccccc3)cn2)c(=O)[nH]/c1=C/c1ccc([N+](=O)[O-])cc1 | > 100 µM (inactive) | 54.7 µM (inactive) | > 100 µM (inactive) | > 37.8 µM (inactive) | > 100 µM (inactive) | > 100 µM (inactive) | > 100 µM (inactive) | > 100 µM (inactive) | > 100 µM (inactive) | > 64.7 µM (inactive) | > 80.2 µM (inactive) | 55.1 µM (inactive) | > 100 µM (inactive) | > 63.1 µM (inactive) | > 100 µM (inactive) | > 54.2 µM (inactive) | > 100 µM (inactive) | > 100 µM (inactive) | > 100 µM (inactive)
COc1cc2c(cc1O)[C@@H]1Cc3c(cc(OC)c(OC)c3Oc3cc4c(cc3OC)CCN(C)[C@@H]4Cc3ccc(O)cc3)[C@H](C2)N1C | > 100 µM (inactive) | 41.2 µM (inactive) | 28.6 µM (inactive) | > 60.3 µM (inactive) | 20.3 µM (inactive) | 31 µM (inactive) | > 71.1 µM (inactive) | 17.1 µM (inactive) | 27.9 µM (inactive) | > 100 µM (inactive) | 2.1 µM (inactive) | > 95.5 µM (inactive) | 18.2 µM (inactive) | 31 µM (inactive) | 48.1 µM (inactive) | > 78.9 µM (inactive) | 35.4 µM (inactive) | > 55.8 µM (inactive) | 22.6 µM (inactive)
CCC(C#N)N(Cc1ccc(CN(C(=O)c2ccccc2)C(C#N)CC)cc1)C(=O)c1ccccc1 (stereo unspecified) | 37.8 µM (inactive) | 27.5 µM (inactive) | 17.8 µM (inactive) | 24.3 µM (inactive) | 13.9 µM (inactive) | 14.6 µM (inactive) | 27.1 µM (inactive) | 31.6 µM (inactive) | 14.5 µM (inactive) | 27 µM (inactive) | 28.1 µM (inactive) | 20.9 µM (inactive) | 36.6 µM (inactive) | 15.8 µM (inactive) | 17.6 µM (inactive) | 29.4 µM (inactive) | 14.7 µM (inactive) | 12.1 µM (inactive) | 21.7 µM (inactive)
O=C1CCCC2=C1CC1=C(CCCC1=O)N2c1ccc(-c2ccccc2)cc1 | > 100 µM (inactive) | > 40 µM (inactive) | > 100 µM (inactive) | > 100 µM (inactive) | > 100 µM (inactive) | > 100 µM (inactive) | > 100 µM (inactive) | > 100 µM (inactive) | > 100 µM (inactive) | > 63.2 µM (inactive) | > 24.6 µM (inactive) | > 100 µM (inactive) | > 100 µM (inactive) | > 100 µM (inactive) | > 100 µM (inactive) | > 63.5 µM (inactive) | > 100 µM (inactive) | > 66.5 µM (inactive) | > 100 µM (inactive)
COC(=O)c1ccccc1C1CN=NC12Cc1cc(C)ccc1C2=O (stereo unspecified) | > 100 µM (inactive) | > 100 µM (inactive) | > 100 µM (inactive) | 84.1 µM (inactive) | 86.9 µM (inactive) | > 100 µM (inactive) | > 100 µM (inactive) | > 100 µM (inactive) | > 100 µM (inactive) | > 100 µM (inactive) | > 100 µM (inactive) | > 100 µM (inactive) | > 100 µM (inactive) | > 100 µM (inactive) | > 100 µM (inactive) | > 100 µM (inactive) | > 100 µM (inactive) | > 100 µM (inactive) | > 100 µM (inactive)
COc1cc(C2C3=C(COC3=O)OC(C)(C)Oc3cc4c(cc32)OCO4)cc(OC)c1O (stereo unspecified) | 3.58 µM (inactive) | 12.9 µM (inactive) | 1.36 µM (inactive) | 1.87 µM (inactive) | 0.383 µM (active) | 2.27 µM (inactive) | 2.79 µM (inactive) | 0.746 µM (active) | 1.62 µM (inactive) | 1.33 µM (inactive) | 0.122 µM (active) | 0.791 µM (active) | 1.09 µM (active) | 3.11 µM (inactive) | 0.548 µM (active) | 0.916 µM (active) | 2.19 µM (inactive) | 3.27 µM (inactive) | 14.6 µM (inactive)
CN(c1ccccc1Cl)S(=O)(=O)c1ccccc1[N+](=O)[O-] | 30.6 µM (inactive) | 22.6 µM (inactive) | 33.2 µM (inactive) | 48.8 µM (inactive) | 21.3 µM (inactive) | 34.7 µM (inactive) | 95.7 µM (inactive) | 79.6 µM (inactive) | 24.8 µM (inactive) | 46.9 µM (inactive) | 29 µM (inactive) | 41.6 µM (inactive) | 17.3 µM (inactive) | 25.7 µM (inactive) | 33.6 µM (inactive) | 55.8 µM (inactive) | 34.3 µM (inactive) | 27.1 µM (inactive) | 96.6 µM (inactive)
COc1ccc(/C=N/c2nc3cc4sc(/N=C/c5ccc(OC)cc5)nc4cc3s2)cc1 | > 81.5 µM (inactive) | 27.3 µM (inactive) | 4.2 µM (inactive) | 27 µM (inactive) | 34 µM (inactive) | 24.7 µM (inactive) | 32.7 µM (inactive) | > 54 µM (inactive) | 41.8 µM (inactive) | > 100 µM (inactive) | > 57.9 µM (inactive) | > 49.2 µM (inactive) | 58.2 µM (inactive) | 8.15 µM (inactive) | 18.4 µM (inactive) | 56.8 µM (inactive) | 23.1 µM (inactive) | 27.3 µM (inactive) | > 100 µM (inactive)
CC(C)C1CCC(=O)CC1CCCCC1CC(=O)CC1O[Si](C)(C)C(C)(C)C (stereo unspecified) | 11.1 µM (inactive) | 4.25 µM (inactive) | 0.955 µM (active) | 5.58 µM (inactive) | 2.76 µM (inactive) | 7.03 µM (inactive) | 5.5 µM (inactive) | 6.76 µM (inactive) | 1.95 µM (inactive) | 3.98 µM (inactive) | 4.67 µM (inactive) | 7.06 µM (inactive) | 6.1 µM (inactive) | 1.89 µM (inactive) | 3.18 µM (inactive) | 2.54 µM (inactive) | 3 µM (inactive) | 4.45 µM (inactive) | 6.44 µM (inactive)
